The numbers were not newly measured in US20170304500A1, “MICROFABRICATED TISSUE SCAFFOLDS AND METHODS OF MAKING AND USING THE SAME” (TARA BIOSYSTEMS INC., priority 2014, published 2017), which cites them from elsewhere.

The series relates to artery and vein. The conditions noted are these: released from hydrogel; reported in PNAS; cited from earlier work.

Turning to “thymosin Beta-4: peptide controllably released from a hydrogel (SDKPDMAEIEKFDKSKLKKTETQEKNPLPSKETIEQEKQAGES; Thymosin beta-4 released from hydrogel; UniProt P62328 2-44, looked up)”, the angiogenesis entry is recorded as “stimulated angiogenesis”.
